# According to paper PMC9788431, “Combination of Docking-Based and Pharmacophore-Based Virtual Screening Identifies Novel Agonists That Target the Urotensin Receptor” (Molecules, 2022):
# Tests used:
# UT receptor [1] = target: T1, UT receptor (Homo sapiens, UniProt Q9UKP6); test: luciferase β-arrestin recruitment-based assay; assay type: cell-based; settings: HTLA cells transfected with UT receptor plasmid
# T1 construct: SNAP-tag; expressed in transfected cells; host or cells: 293A8 (HEK293A stably transfected with the UT receptor); inferred, the calcium-assay paragraph names no cells
# T1 sequence (Q9UKP6 1-389): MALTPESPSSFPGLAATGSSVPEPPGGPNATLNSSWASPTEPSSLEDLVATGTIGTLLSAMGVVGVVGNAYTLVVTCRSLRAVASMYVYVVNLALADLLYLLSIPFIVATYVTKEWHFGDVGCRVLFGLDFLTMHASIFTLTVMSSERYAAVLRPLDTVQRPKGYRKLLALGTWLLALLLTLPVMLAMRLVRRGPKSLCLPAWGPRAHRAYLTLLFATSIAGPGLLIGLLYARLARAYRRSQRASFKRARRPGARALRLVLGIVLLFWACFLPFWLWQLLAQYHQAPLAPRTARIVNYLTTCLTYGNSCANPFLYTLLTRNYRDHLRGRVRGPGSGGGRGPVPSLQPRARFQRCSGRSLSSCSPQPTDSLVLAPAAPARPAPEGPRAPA
# Description: (§1) HTLA cells (a HEK293 cell line stably expressing a tTA-dependent luciferase reporter and a β-arrestin2-TEV fusion gene) were a gift from the laboratory of R. Axel (he has given us permission to distribute them) and are maintained in DMEM supplemented with 10% FBS, 100 U/mL penicillin and 100 μg/mL streptomycin, 2 μg/mL puromycin and 100 μg/mL hygromycin B. HepG2 cells (C5 passage, human hepatoma cell line) were purchased from the National Platform of Experimental Cell Resources for Sci-Tech, Chinese Academy of Medical Sciences (Beijing, China), and 293A8 cells were the cell line HEK293A stably transfected with the UT receptor in our laboratory. HepG2 and 293A8 cells were grown in high glucose (25 mmol/L) Dulbecco’s modified Eagle’s medium (DMEM, Gibco, CA, USA) supplemented with 10% fetal bovine serum (FBS, Gibco, CA, USA), 100 U/mL penicillin and 100 µg/mL streptomycin solution (Solarbio, Beijing, China). Cells were cultured in a standard humidified incubator at 37 °C under a 5% CO2 atmosphere. The media were changed every 2 days. Subcultures were performed at a ratio of 1:3 when cells were approximately 75–85% confluent.
# The β-arrestin recruitment-based experiments were performed according to previous reports with slight modifications. In brief, the UT receptor plasmid was transfected into HTLA cells with the transfection reagent PEI when the cell confluence reached approximately 80%. Transfected cells were seeded in 96-well plates at a density of 1.5 × 10^5 cells/well. After 24 h, the cells were treated with compounds diluted to the specified concentration using 10% FBS DMEM. Following the next 24 h incubation with compounds, the medium was removed and Bright-GloTM (Promega, Madison, WI, USA) reagent was added immediately. Then, the activity of firefly luciferase luminescence (RLUF) was measured using a SpectraMax M5 microplate reader (Molecular devices, LLC., San Jose, CA, USA).
# UT receptor [2] = target: T1, UT receptor; test: intracellular calcium mobilization (Fluo-8 calcium assay); assay type: cell-based; settings: intracellular calcium mobilization
# Description: as §1
# Measurement of intracellular calcium mobilization was performed using Fluo-8 Calcium Assay Kit (Applygen, Beijing, China) following the manufacturer’s instructions.
# [3] = chronic administration, cited from earlier work
# [4] = parameters: method as in PMID 19696412; settings: cited from earlier work
smiles,measurement,setting,value
"CC(C)[C@H](NC(=O)[C@@H]1CSSC[C@H](NC(=O)[C@H](CC(=O)O)NC(=O)[C@@H]2CCCN2C(=O)[C@@H](NC(=O)[C@@H](N)CCC(=O)O)[C@@H](C)O)C(=O)N[C@@H](Cc2ccccc2)C(=O)N[C@@H](Cc2c[nH]c3ccccc23)C(=O)N[C@@H](CCCCN)C(=O)N[C@@H](Cc2ccc(O)cc2)C(=O)N1)C(=O)O [U-II, urotensin-II]",β-arrestin recruitment-based assay Emax,UT receptor [1],8.32
same,Calcium assay Emax,UT receptor [2],5.27
same,whole-body glucose tolerance,[3]; high-fat-diet-fed mice,improves whole-body glucose tolerance
same,glucose tolerance,[3]; obese mice,improved glucose tolerance
same,glucose consumption in vitro,[4],increases glucose consumption
